Experimental data: US20260035409A1, “BRINP2-DERIVED PEPTIDE COMPOSITIONS FOR TREATING OBESITY AND WEIGHT MANAGEMENT” (The Board of Trustees of the Leland Stanford Junior …, priority 2022, published 2026)
Ends that are not written are not given here.

Tests used:
[1] = acute food intake in fasted lean C57BL/6 mice after I.P. injection; type: in vivo; conditions: 5 mg/kg I.P., up to 6 hours
Method: (§1) We next performed in vivo studies to determine whether any of these peptides affected food intake or blood glucose levels—two biological consequences of cfos activation. For acute food intake studies, lean, 8-week-old C57BL/6 mice (N=3/group) were fasted for 16 hours prior to administration of vehicle (saline), GLP-1 at 2 mg/kg, or FGF3_4, EDIL3_4, BRNP2_5, SCG1_9, FSTL4_3, and FGF5_5 peptides at 5 mg/kg. The food intake was then monitored over 6 hours.
Mouse studies. Animal experiments were performed per procedures approved by the Institutional Animal Care and Use Committee of the Stanford Animal Care and Use Committee (APLAC) protocol number #32982. C57BL/6J male mice were purchased from the Jackson Laboratory (#000664) and were used after 1 week of acclimatization after import into the facility. Unless otherwise stated, all mice were in good health and housed in a temperature-controlled (20-22° C.) room on a 12-hour light/dark cycle with ad lib access to food and water.
(§2) For acute experiments, after overnight fasting for 16 hours, 8-week-old C57BL/6 mice were weighed and I.P. injected with either saline, GLP-1 at 2 mg/kg or peptides at 5 mg/kg (N=3 mice per group). Fasted blood glucose and food intake was then monitored for 6 hours.

[2] = tested on: cfos expression in NS-1 cells; assay: cfos expression after 1 h peptide treatment, NS-1 cells (qRT-PCR); type: cell-based, rat; conditions: for cfos activation, alanine substitutions in the BRP sequence: 100 μg/kg, fully active = >15-fold over vehicle
Source text: A feature of many known biologically active peptide hormones is the presence of an amidated C-terminus, which can be important for peptide bioactivity, as for gastrin-releasing peptide neuromedin-B, or for increased peptide stability, as for GLP-1. Therefore, the peptide library was constructed with an amide (NH2) group at the C-terminus as the only modification for comparative studies between peptides (FIG. 2a). In total, we generated a library of 100 peptides for functional biological screening. The peptide solubility was deduced according to its overall charge and reconstituted accordingly to optimal solubility. For all peptides, quality control by mass spectrometry was performed which validated the purity of the synthesized peptides for the primary screen according to their theoretical molecular weight (FIG. 8). Next, we functionally explored the potency of 100 of the peptides in activating cfos expression, a marker of cellular activity, after 1 hour of peptide treatment across two cell lines, Neuroscreen-1, NS-1 (rat neuronal origin) and INS1 cells (rat pancreatic origin) (FIG. 2b). Glucagon-like peptide 1 (GLP-1^7-37), a 30-mer peptide ligand for the glucagon receptor family of G protein-coupled receptors in pancreatic 3-cells, was used as a positive control at 30 μM in INS1 cells. NGF (Nerve Growth Factor) was used as a positive control at 2 nM in NS-1 cells. Expectedly, we find that GLP-1^7-37 induces a ˜4-fold elevation of cfos expression in INS1 cells and NGF induces a ˜10-fold induction of cfos expression in NS-1 cells (FIG. 2b). Across the 100 tested peptides, 6 peptides, FGF34, EDIL3_4, BRNP2_5, SCG1_9, FSTL4_3, and FGF5_5 induced more than a >5-fold cfos expression across both cell lines compared with vehicle.
Cell culture. NS-1 rat neuronal cell line was cultured with RPMI 1640 medium (Gibco) supplemented with 10% FBS and 1% L-glutamine. INS-1 832/13 rat insulinoma cell line (#SCC207) was cultured with RPMI 1640 medium (Gibco) supplemented with 10% FBS, 1% L-glutamine, 10 mM HEPES, 1 mM NaPyruvate and 50 μM β-mercaptoethanol. For peptide activity assay, 3×10^5 NS-1 and INS1 cells were plated in 12 well-plates. The next day, cells were washed twice with warm PBS and starved in serum-free RPMI overnight. Indicated concentrations of NGF (2 nM) or GLP-1 (30 μM) or peptides (100 μg/ml) were added and incubated for 1 hr at 37° C. Cells were washed with PBS and RNA was isolated for cfos expression analysis.
RNA expression analysis. Total RNA was isolated using TRIzol (Thermo Fischer Scientific) and Rneasy mini kits (QIAGEN). RNA was reverse transcribed using the ABI high-capacity cDNA synthesis kit. For qRT-PCR analysis, cDNA, primers and SYBR-green fluorescent dye (ABI) was used. Relative mRNA expression was determined by normalization with Ribosomalprotein S18 (Rsp18) levels using the ΔΔCt method. The primer sequences used are […] and […] for Rsp18 and […] and […] for cfos.

[3] = open-field assay 30 min after single injection; type: in vivo, mice; conditions: 5 mg/kg I.P., 30 min post-injection
Method: Open field assay. 8-week-old C57BL/6 mice were transferred to the open-field facility and housed for 7 days for habituation before the test. Mice were weighed and then I.P. injected with either saline or BRP peptide at 5 mg/kg (N=15 mice per group, […] solution diluted in saline, total injection volume 100 ul per mouse). 30 min post-injection, the open-field test was performed in an Open Field Activity Arena (Med Associates Inc., St. Albans, VT. Model ENV-515) mounted with three planes of infrared detectors and within a specially designed sound-attenuating chamber (Med Associates Inc., St. Albans, VT. MED-017M-027). The arena was 43 cm (L)×43 cm (W)×30 cm (H), and the sound-attenuating chamber was 74 cm (L)×60 cm (W)×60 cm (H). Each mouse was placed in the corner of the testing arena and allowed to explore the arena for 10 minutes while being tracked by an automated tracking system. Data was analyzed using software Activity Monitor Version 7.8. Parameters analyzed include distance moved and time spent in the periphery and center of the arena. The periphery was defined as the zone 5 cm away from the arena wall.

[4] = metabolic cages (Columbus comprehensive lab animal monitoring system) after single injection; type: in vivo, mice
Method: To study the metabolic effects in more detail, we next used metabolic cages performed with a Columbus comprehensive lab animal monitoring system. C57BL6/J mice were acclimated to the cages and randomized into two groups, followed by an I.P. injection with either vehicle (saline) or 5 mg/kg BRP (N=4/group).
Food intake, energy expenditure and body composition measurements. Measurements of accumulated food intake and VO2 were performed using a Comprehensive Lab Animal Monitoring System at room temperature (20-22° C.) (Oxymax, Columbus Instruments) as previously described. Singly housed mice were acclimated in metabolic cages for at least 24 h before the start of experiment to minimize stress.

[5] = tested on: cfos expression in INS1 cells; assay: cfos expression after 1 h peptide treatment, INS1 cells (qRT-PCR); type: cell-based, rat; conditions: GLP-1 30 μM
Source text: A feature of many known biologically active peptide hormones is the presence of an amidated C-terminus, which can be important for peptide bioactivity, as for gastrin-releasing peptide neuromedin-B, or for increased peptide stability, as for GLP-1. Therefore, the peptide library was constructed with an amide (NH2) group at the C-terminus as the only modification for comparative studies between peptides (FIG. 2a). In total, we generated a library of 100 peptides for functional biological screening. The peptide solubility was deduced according to its overall charge and reconstituted accordingly to optimal solubility. For all peptides, quality control by mass spectrometry was performed which validated the purity of the synthesized peptides for the primary screen according to their theoretical molecular weight (FIG. 8). Next, we functionally explored the potency of 100 of the peptides in activating cfos expression, a marker of cellular activity, after 1 hour of peptide treatment across two cell lines, Neuroscreen-1, NS-1 (rat neuronal origin) and INS1 cells (rat pancreatic origin) (FIG. 2b). […]
RNA expression analysis. […] Relative mRNA expression was determined by normalization with Ribosomalprotein S18 (Rsp18) levels using the ΔΔCt method. […]

[6] = fasting blood glucose in lean C57BL/6 mice after I.P. injection (no food); type: in vivo; conditions: fasted, peptides 5 mg/kg or GLP-1 2 mg/kg I.P.
Method: as §1, §2

Substance | food intake, alanine substitutions compared with BRP [1] | cfos activation, alanine substitutions in the BRP sequence [2] | other results
THAILRRLFNLC [Ala substitution on residue 3] | reduced efficacy in lowering food intake | important to retain full activity | 
THRILARLFNLC [Ala substitution on residue 6] | reduced efficacy in lowering food intake |  | 
THRALRRLFNLC [Ala substitution on residue 4] | reduced efficacy in lowering food intake |  | 
THRILRRLFNLA [Ala substitution on residue 12] | reduced efficacy in lowering food intake | important to retain full activity | 
THRILRRLFNLC-NH2 [BRP, THRILRRLFNLC] |  |  | anxiety-like behavior (open field) [3]: does not affect anxiety-like behavior; ambulatory activity ([4]; single I.P. injection 5 mg/kg): does not alter
THRILRRAFNLC [Ala substitution on residue 8] | reduced efficacy in lowering food intake | important to retain full activity | 
NGF: Nerve Growth Factor, positive control in NS-1 cells [reference compound] |  |  | induction of cfos expression (positive control) ([2]; NGF 2 nM): ~10 fold
GLP-1: 30-mer peptide ligand for the glucagon receptor family of GPCRs, positive control |  |  | elevation of cfos expression (positive control) [5]: ~4 fold; blood glucose [6]: lowered blood glucose; energy expenditure ([4]; single injection GLP-1 2 mg/kg): without affecting; food intake (metabolic cages) ([4]; single injection GLP-1 2 mg/kg): acutely suppresses; locomotor activity ([4]; single injection GLP-1 2 mg/kg): without affecting; meal size ([4]; single injection GLP-1 2 mg/kg): acutely suppresses
THRILRRLFNLC (listed as Homo sapiens) [non-amidated BRP] |  |  | cfos activity in words ([2]; 100 μg/ml): no activity
THRILRALFNLC [Ala substitution on residue 7] | improves the appetite-suppressing effect of BRP |  | 
THRILRRLFALC [Ala substitution on residue 10] |  | important to retain full activity | 
THRIARRLFNLC [Ala substitution on residue 5] | reduced efficacy in lowering food intake |  | 
